Laboratory results taken from PubChem BioAssay AID1963836 (Molecular Pharmacology Branch, DTP, NCI, 2024).

Test system: 857933-349-R-J2-PDC complex spheroid viability
Assay: Anticancer human tumor 857933-349-R-J2-PDC patient-derived colon adenocarcinoma cell line growth inhibition [POLQ]
Details: for IC50: curve of first compound; for viability, T/C: stronger effect = lower value
Procedure, shortened: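 Complex spheroid viability model combining PDC tumour cells with endothelial (HUVEC) and MSC stromal cells. Novobiocin, ART-558 or RP6685 were tested singly and in combination with standard and investigational anticancer drugs. Each was titrated in half-log steps from near clinical Cmax, or from 10 microM where Cmax was unknown.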

[1] = second compound 0.0316 µM, first compound 0.0316 µM
[2] = second compound 0.0316 µM, first compound 0.1 µM
[3] = second compound 0.0316 µM, first compound 0.316 µM
[4] = second compound 0.0316 µM, first compound 1 µM
[5] = second compound 0.0316 µM, first compound 3.16 µM
[6] = second compound 0.0316 µM, first compound 10 µM
[7] = second compound 0.1 µM, first compound 0.0316 µM
[8] = second compound 0.1 µM, first compound 0.1 µM
[9] = second compound 0.1 µM, first compound 0.316 µM
[10] = second compound 0.1 µM, first compound 1 µM
[11] = second compound 0.1 µM, first compound 3.16 µM
[12] = second compound 0.1 µM, first compound 10 µM
[13] = second compound 0.316 µM, first compound 0.0316 µM
[14] = second compound 0.316 µM, first compound 0.1 µM
[15] = second compound 0.316 µM, first compound 0.316 µM
[16] = second compound 0.316 µM, first compound 1 µM
[17] = second compound 0.316 µM, first compound 3.16 µM
[18] = second compound 0.316 µM, first compound 10 µM
[19] = second compound 1 µM, first compound 0.0316 µM
[20] = second compound 1 µM, first compound 0.1 µM
[21] = second compound 1 µM, first compound 0.316 µM
[22] = second compound 1 µM, first compound 1 µM
[23] = second compound 1 µM, first compound 3.16 µM
[24] = second compound 1 µM, first compound 10 µM
[25] = second compound 3.16 µM, first compound 0.0316 µM
[26] = second compound 3.16 µM, first compound 0.1 µM
[27] = second compound 3.16 µM, first compound 0.316 µM
[28] = second compound 3.16 µM, first compound 1 µM
[29] = second compound 3.16 µM, first compound 3.16 µM
[30] = second compound 3.16 µM, first compound 10 µM
[31] = second compound 10 µM, first compound 0.0316 µM
[32] = second compound 10 µM, first compound 0.1 µM
[33] = second compound 10 µM, first compound 0.316 µM
[34] = second compound 10 µM, first compound 1 µM
[35] = second compound 10 µM, first compound 3.16 µM
[36] = second compound 10 µM, first compound 10 µM
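Further: spheroids exposed to compounds for seven days before readout.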

CC(=O)O[C@H]1C(=O)[C@@]2(C)[C@H]([C@H](OC(=O)c3ccccc3)[C@]3(O)C[C@H](OC(=O)[C@H](O)[C@@H](NC(=O)c4ccccc4)c4ccccc4)C(C)=C1C3(C)C)[C@]1(OC(C)=O)CO[C@@H]1C[C@@H]2O + COC1C(OC(N)=O)C(O)C(Oc2ccc3c(O)c(NC(=O)c4ccc(O)c(CC=C(C)C)c4)c(=O)oc3c2C)OC1(C)C
IC50 (second compound 0.0316 µM): < 9.49 nM
IC50 (second compound 0.1 µM): 14.6 nM
IC50 (second compound 0.316 µM): 13.2 nM
IC50 (second compound 1 µM): 12.2 nM
IC50 (second compound 3.16 µM): 9.76 nM
IC50 (second compound 10 µM): 11.3 nM
viability, T/C (second compound 0.0316 µM, first compound 0.00949 µM): 48.7%
viability, T/C (second compound 0.0316 µM, first compound 0.03 µM): 25%
viability, T/C (second compound 0.0316 µM, first compound 0.0949 µM): 19.1%
viability, T/C (second compound 0.0316 µM, first compound 0.3 µM): 17.6%
viability, T/C (second compound 0.0316 µM, first compound 0.949 µM): 15.8%
viability, T/C (second compound 0.0316 µM, first compound 3 µM): 20.8%
viability, T/C (second compound 0.1 µM, first compound 0.00949 µM): 61%
viability, T/C (second compound 0.1 µM, first compound 0.03 µM): 31.7%
viability, T/C (second compound 0.1 µM, first compound 0.0949 µM): 15.2%
viability, T/C (second compound 0.1 µM, first compound 0.3 µM): 15.4%
viability, T/C (second compound 0.1 µM, first compound 0.949 µM): 15.1%
viability, T/C (second compound 0.1 µM, first compound 3 µM): 16.5%
viability, T/C (second compound 0.316 µM, first compound 0.00949 µM): 57.8%
viability, T/C (second compound 0.316 µM, first compound 0.03 µM): 30.2%
viability, T/C (second compound 0.316 µM, first compound 0.0949 µM): 15.7%
viability, T/C (second compound 0.316 µM, first compound 0.3 µM): 19.7%
viability, T/C (second compound 0.316 µM, first compound 0.949 µM): 13.8%
viability, T/C (second compound 0.316 µM, first compound 3 µM): 25.4%
viability, T/C (second compound 1 µM, first compound 0.00949 µM): 58.7%
viability, T/C (second compound 1 µM, first compound 0.03 µM): 19.7%
viability, T/C (second compound 1 µM, first compound 0.0949 µM): 12.8%
viability, T/C (second compound 1 µM, first compound 0.3 µM): 20.5%
viability, T/C (second compound 1 µM, first compound 0.949 µM): 16.1%
viability, T/C (second compound 1 µM, first compound 3 µM): 20.3%
viability, T/C (second compound 3.16 µM, first compound 0.00949 µM): 50.7%
viability, T/C (second compound 3.16 µM, first compound 0.03 µM): 21.3%
viability, T/C (second compound 3.16 µM, first compound 0.0949 µM): 15.2%
viability, T/C (second compound 3.16 µM, first compound 0.3 µM): 16.4%
viability, T/C (second compound 3.16 µM, first compound 0.949 µM): 16.4%
viability, T/C (second compound 3.16 µM, first compound 3 µM): 19.3%
viability, T/C (second compound 10 µM, first compound 0.00949 µM): 54.5%
viability, T/C (second compound 10 µM, first compound 0.03 µM): 25.5%
viability, T/C (second compound 10 µM, first compound 0.0949 µM): 18.3%
viability, T/C (second compound 10 µM, first compound 0.3 µM): 17.4%
viability, T/C (second compound 10 µM, first compound 0.949 µM): 15.7%
viability, T/C (second compound 10 µM, first compound 3 µM): 20.7%

COc1cc(C2c3cc4c(cc3C(OC3OC5COC(C)OC5C(O)C3O)C3COC(=O)C23)OCO4)cc(OC)c1O (stereo unspecified) + COC1C(OC(N)=O)C(O)C(Oc2ccc3c(O)c(NC(=O)c4ccc(O)c(CC=C(C)C)c4)c(=O)oc3c2C)OC1(C)C
IC50 (second compound 0.0316 µM): 352 nM
IC50 (second compound 0.1 µM): 399 nM
IC50 (second compound 0.316 µM): 488 nM
IC50 (second compound 1 µM): 453 nM
IC50 (second compound 3.16 µM): 358 nM
IC50 (second compound 10 µM): 386 nM
viability, T/C [1]: 80.7%
viability, T/C [2]: 88.3%
viability, T/C [3]: 51.3%
viability, T/C [4]: 46.2%
viability, T/C [5]: 36.1%
viability, T/C [6]: 28.7%
viability, T/C [7]: 71.1%
viability, T/C [8]: 84.7%
viability, T/C [9]: 53.5%
viability, T/C [10]: 42.3%
viability, T/C [11]: 35.5%
viability, T/C [12]: 30.4%
viability, T/C [13]: 74.1%
viability, T/C [14]: 79.3%
viability, T/C [15]: 54.6%
viability, T/C [16]: 41%
viability, T/C [17]: 34.7%
viability, T/C [18]: 29.9%
viability, T/C [19]: 81.9%
viability, T/C [20]: 71.3%
viability, T/C [21]: 54.6%
viability, T/C [22]: 39.6%
viability, T/C [23]: 34.2%
viability, T/C [24]: 29.9%
viability, T/C [25]: 88.2%
viability, T/C [26]: 99%
viability, T/C [27]: 52.1%
viability, T/C [28]: 37.5%
viability, T/C [29]: 30.3%
viability, T/C [30]: 30.1%
viability, T/C [31]: 94.5%
viability, T/C [32]: 65.7%
viability, T/C [33]: 54.6%
viability, T/C [34]: 39.8%
viability, T/C [35]: 37.6%
viability, T/C [36]: 32.1%

O=c1[nH]cc(F)c(=O)[nH]1 + COC1C(OC(N)=O)C(O)C(Oc2ccc3c(O)c(NC(=O)c4ccc(O)c(CC=C(C)C)c4)c(=O)oc3c2C)OC1(C)C
IC50 (second compound 0.0316 µM): 1960 nM
IC50 (second compound 0.1 µM): 1640 nM
IC50 (second compound 0.316 µM): 2270 nM
IC50 (second compound 1 µM): 2220 nM
IC50 (second compound 3.16 µM): 2760 nM
IC50 (second compound 10 µM): 2560 nM
viability, T/C [1]: 81.7%
viability, T/C [2]: 110%
viability, T/C [3]: 125%
viability, T/C [4]: 71.1%
viability, T/C [5]: 45.5%
viability, T/C [6]: 24.6%
viability, T/C [7]: 87.3%
viability, T/C [8]: 91.5%
viability, T/C [9]: 92.2%
viability, T/C [10]: 58.1%
viability, T/C [11]: 44.7%
viability, T/C [12]: 30.3%
viability, T/C [13]: 99.3%
viability, T/C [14]: 87.2%
viability, T/C [15]: 88.8%
viability, T/C [16]: 70.9%
viability, T/C [17]: 41%
viability, T/C [18]: 28.4%
viability, T/C [19]: 109%
viability, T/C [20]: 92.1%
viability, T/C [21]: 97.3%
viability, T/C [22]: 63.8%
viability, T/C [23]: 44.5%
viability, T/C [24]: 30%
viability, T/C [25]: 79.7%
viability, T/C [26]: 86.3%
viability, T/C [27]: 82.3%
viability, T/C [28]: 85.3%
viability, T/C [29]: 45.5%
viability, T/C [30]: 29.3%
viability, T/C [31]: 108%
viability, T/C [32]: 74.4%
viability, T/C [33]: 76.3%
viability, T/C [34]: 76.2%
viability, T/C [35]: 42.2%
viability, T/C [36]: 29.3%
